Data as given in PMC4767605 (Cancer chemotherapy and pharmacology, 2016).
Values joined by “and” are separate entries in the source; they are usually repeats but may differ in a detail not shown here. Equal entries are not always repeated. Where two headings read alike, the source gives them in different places.

[1] = ASP9853 Lead-in (n=20), single agent
[2] = Cohort 1 (n=6): ASP9853 25 mg + docetaxel 60 mg/m^2
[3] = Cohort 2 (n=4): ASP9853 25 mg + docetaxel 75 mg/m^2
[4] = Cohort 3 (n=3): ASP9853 37.5 mg + docetaxel 60 mg/m^2

Compound: O.O.O=C(/C=C/c1ccc(Cl)cc1)N[C@@H](Cc1ccccn1)C(=O)NCC(=O)N1CCC(Oc2cc(C(F)(F)F)ncn2)CC1 [ASP9853, (2E)-3-(4-chlorophenyl)-N-[(1S)-2-oxo-2-{[2-oxo-2-(4-{[6-(trifluoromethyl)-4-pyrimidinyl]oxy}-1-piperidinyl)ethyl]amino}-1-(2-pyridinylmethyl)ethyl]acrylamide dehydrate]
- Toxicity noted in single-patient Cohort 1 (did not meet DLT criteria) (ASP9853 25 mg + docetaxel 60 mg/m^2): Grade 3 neutropenia
- Changes in liver function tests, vital signs, or electrocardiogram (ECGs) (ASP9853 + docetaxel): No clinically significant changes from baseline
- Neutropenia during treatment (laboratory evaluation) (ASP9853 + docetaxel): All patients experienced neutropenia
- Patients with AEs that led to treatment discontinuation (ASP9853 + docetaxel, all cohorts): Three
- AE potentially related to ASP9853: Anemia; Grade 3/4 [1]: 0 n (%)
- AE potentially related to ASP9853: Anemia; Grade All [1]: 0 n (%)
- AE potentially related to ASP9853: Asthenia; Grade 3/4 [1]: 0 n (%)
- AE potentially related to ASP9853: Asthenia; Grade All [1]: 1 (5) n (%)
- AE potentially related to ASP9853: Constipation; Grade 3/4 [1]: 0 n (%)
- AE potentially related to ASP9853: Constipation; Grade All [1]: 0 n (%)
- AE potentially related to ASP9853: Decreased appetite; Grade 3/4 [1]: 0 n (%)
- AE potentially related to ASP9853: Decreased appetite; Grade All [1]: 0 n (%)
- AE potentially related to ASP9853: Diarrhea; Grade 3/4 (only Grade 3) [1]: 0 n (%)
- AE potentially related to ASP9853: Diarrhea; Grade All [1]: 0 n (%)
- AE potentially related to ASP9853: Dizziness; Grade 3/4 [1]: 0 n (%)
- AE potentially related to ASP9853: Dizziness; Grade All [1]: 0 n (%)
- AE potentially related to ASP9853: Fatigue; Grade 3/4 (only Grade 3) [1]: 0 n (%)
- AE potentially related to ASP9853: Fatigue; Grade All [1]: 0 n (%)
- AE potentially related to ASP9853: Febrile neutropenia; Grade 3/4 [1]: 0 n (%)
- AE potentially related to ASP9853: Febrile neutropenia; Grade All [1]: 0 n (%)
- AE potentially related to ASP9853: Nausea; Grade 3/4 [1]: 0 n (%)
- AE potentially related to ASP9853: Nausea; Grade All [1]: 1(5) n (%)
- AE potentially related to ASP9853: Neutropenia; Grade 3/4 [1]: 0 n (%)
- AE potentially related to ASP9853: Neutropenia; Grade All [1]: 0 n (%)
- AE potentially related to ASP9853: Neutrophil count decreased; Grade 3/4 [1]: 0 n (%)
- AE potentially related to ASP9853: Neutrophil count decreased; Grade All [1]: 0 n (%)
- AE potentially related to ASP9853: Overall; Grade 3/4 [1]: 0 n (%)
- AE potentially related to ASP9853: Overall; Grade All [1]: 7 [35%] n (%) and 7 (35) n (%)
- AE potentially related to ASP9853: Vomiting; Grade 3/4 [1]: 0 n (%)
- AE potentially related to ASP9853: Vomiting; Grade All [1]: 1 (5) n (%)
- AE potentially related to ASP9853: White blood cell count decreased; Grade All [1]: 0 n (%)
- AE potentially related to ASP9853: Anemia; Grade 3/4 [2]: 0 n (%)
- AE potentially related to ASP9853: Anemia; Grade All [2]: 1 (17) n (%)
- AE potentially related to ASP9853: Asthenia; Grade 3/4 [2]: 0 n (%)
- AE potentially related to ASP9853: Asthenia; Grade All [2]: 0 n (%)
- AE potentially related to ASP9853: Constipation; Grade 3/4 [2]: 0 n (%)
- AE potentially related to ASP9853: Constipation; Grade All [2]: 1 (17) n (%)
- AE potentially related to ASP9853: Decreased appetite; Grade 3/4 [2]: 0 n (%)
- AE potentially related to ASP9853: Decreased appetite; Grade All [2]: 0 n (%)
- AE potentially related to ASP9853: Diarrhea; Grade 3/4 (only Grade 3) [2]: 0 n (%)
- AE potentially related to ASP9853: Diarrhea; Grade All [2]: 1 (17) n (%)
- AE potentially related to ASP9853: Dizziness; Grade 3/4 [2]: 0 n (%)
- AE potentially related to ASP9853: Dizziness; Grade All [2]: 0 n (%)
- AE potentially related to ASP9853: Fatigue; Grade 3/4 (only Grade 3) [2]: 0 n (%)
- AE potentially related to ASP9853: Fatigue; Grade All [2]: 2 (33) n (%)
- AE potentially related to ASP9853: Febrile neutropenia; Grade 3/4 [2]: 0 n (%)
- AE potentially related to ASP9853: Febrile neutropenia; Grade All [2]: 0 n (%)
- AE potentially related to ASP9853: Nausea; Grade 3/4 [2]: 0 n (%)
- AE potentially related to ASP9853: Nausea; Grade All [2]: 0 n (%)
- AE potentially related to ASP9853: Neutropenia; Grade 3/4 [2]: 1 (17) n (%)
- AE potentially related to ASP9853: Neutropenia; Grade All [2]: 1 (17) n (%)
- AE potentially related to ASP9853: Neutrophil count decreased; Grade 3/4 [2]: 0 n (%)
- AE potentially related to ASP9853: Neutrophil count decreased; Grade All [2]: 0 n (%)
- AE potentially related to ASP9853: Overall; Grade 3/4 [2]: 2 (33) n (%)
- AE potentially related to ASP9853: Overall; Grade All [2]: 5 (83) n (%)
- AE potentially related to ASP9853: Vomiting; Grade 3/4 [2]: 0 n (%)
- AE potentially related to ASP9853: Vomiting; Grade All [2]: 0 n (%)
- AE potentially related to ASP9853: White blood cell count decreased; Grade All [2]: 1 (17) n (%)
- SAE considered related to ASP9853: diarrhea (Cohort 2): 1 n
- SAE considered related to ASP9853: febrile neutropenia (Cohort 2): 2 n
- AE potentially related to ASP9853: Anemia; Grade 3/4 [3]: 0 n (%)
- AE potentially related to ASP9853: Anemia; Grade All [3]: 1 (25) n (%)
- AE potentially related to ASP9853: Asthenia; Grade 3/4 [3]: 0 n (%)
- AE potentially related to ASP9853: Asthenia; Grade All [3]: 2 (50) n (%)
- AE potentially related to ASP9853: Constipation; Grade 3/4 [3]: 0 n (%)
- AE potentially related to ASP9853: Constipation; Grade All [3]: 0 n (%)
- AE potentially related to ASP9853: Decreased appetite; Grade 3/4 [3]: 0 n (%)
- AE potentially related to ASP9853: Decreased appetite; Grade All [3]: 1 (25) n (%)
- AE potentially related to ASP9853: Diarrhea; Grade 3/4 (only Grade 3) [3]: 1 (25) n (%)
- AE potentially related to ASP9853: Diarrhea; Grade All [3]: 2 (50) n (%)
- AE potentially related to ASP9853: Dizziness; Grade 3/4 [3]: 0 n (%)
- AE potentially related to ASP9853: Dizziness; Grade All [3]: 0 n (%)
- AE potentially related to ASP9853: Fatigue; Grade 3/4 (only Grade 3) [3]: 1 (25) n (%)
- AE potentially related to ASP9853: Fatigue; Grade All [3]: 3 (75) n (%)
- AE potentially related to ASP9853: Febrile neutropenia; Grade 3/4 [3]: 2 (50) n (%)
- AE potentially related to ASP9853: Febrile neutropenia; Grade All [3]: 2 (50) n (%)
- AE potentially related to ASP9853: Nausea; Grade 3/4 [3]: 0 n (%)
- AE potentially related to ASP9853: Nausea; Grade All [3]: 2 (50) n (%)
- AE potentially related to ASP9853: Neutropenia; Grade 3/4 [3]: 0 n (%)
- AE potentially related to ASP9853: Neutropenia; Grade All [3]: 0 n (%)
- AE potentially related to ASP9853: Neutrophil count decreased; Grade 3/4 [3]: 0 n (%)
- AE potentially related to ASP9853: Neutrophil count decreased; Grade All [3]: 0 n (%)
- AE potentially related to ASP9853: Overall; Grade 3/4 [3]: 3 (75) n (%)
- AE potentially related to ASP9853: Overall; Grade All [3]: 3 (75) n (%)
- AE potentially related to ASP9853: Vomiting; Grade 3/4 [3]: 0 n (%)
- AE potentially related to ASP9853: Vomiting; Grade All [3]: 3 (75) n (%)
- AE potentially related to ASP9853: White blood cell count decreased; Grade All [3]: 0 n (%)
- AE potentially related to ASP9853: Anemia; Grade 3/4 [4]: 0 n (%)
- AE potentially related to ASP9853: Anemia; Grade All [4]: 0 n (%)
- AE potentially related to ASP9853: Asthenia; Grade 3/4 [4]: 0 n (%)
- AE potentially related to ASP9853: Asthenia; Grade All [4]: 0 n (%)
- AE potentially related to ASP9853: Constipation; Grade 3/4 [4]: 0 n (%)
- AE potentially related to ASP9853: Constipation; Grade All [4]: 1 (33) n (%)
- AE potentially related to ASP9853: Decreased appetite; Grade 3/4 [4]: 0 n (%)
